Measured values as given in EP0651055A2 (priority 1993, dated 1995).

Legend:
[1] = target: T1, recombinant human acetylcholinesterase (HuAChE), wild type (Homo sapiens, UniProt P22303); conditions: read-out: Km (ATC); pH 8
[2] = target: recombinant HuAChE mutant Glu450Ala (Homo sapiens, UniProt P22303, E481A); type: biochemical
[3] = target: recombinant HuAChE mutant Tyr337Ala (Homo sapiens, UniProt P22303, Y368A); type: biochemical
[4] = target: recombinant HuAChE mutant Phe338Ala (Homo sapiens, UniProt P22303, F369A); type: biochemical
[5] = target: T1, recombinant human acetylcholinesterase (HuAChE), wild type; type: biochemical
[6] = target: recombinant HuAChE mutant Glu202Gln (Homo sapiens, UniProt P22303, E233Q); type: biochemical
CC(=O)SCC[N+](C)(C)C = assay: purified protein, by the assay type; conditions: other: Tyr133Ala, sodium-phosphate buffer pH 8, 27°C
CC(=O)SCCC(C)(C)C = assay: purified protein, by the assay type; conditions: pH 8.0; 27.0 °C

recombinant HuAChE mutant Tyr337Ala, sequence (P22303 32-614 Y368A limits assumed): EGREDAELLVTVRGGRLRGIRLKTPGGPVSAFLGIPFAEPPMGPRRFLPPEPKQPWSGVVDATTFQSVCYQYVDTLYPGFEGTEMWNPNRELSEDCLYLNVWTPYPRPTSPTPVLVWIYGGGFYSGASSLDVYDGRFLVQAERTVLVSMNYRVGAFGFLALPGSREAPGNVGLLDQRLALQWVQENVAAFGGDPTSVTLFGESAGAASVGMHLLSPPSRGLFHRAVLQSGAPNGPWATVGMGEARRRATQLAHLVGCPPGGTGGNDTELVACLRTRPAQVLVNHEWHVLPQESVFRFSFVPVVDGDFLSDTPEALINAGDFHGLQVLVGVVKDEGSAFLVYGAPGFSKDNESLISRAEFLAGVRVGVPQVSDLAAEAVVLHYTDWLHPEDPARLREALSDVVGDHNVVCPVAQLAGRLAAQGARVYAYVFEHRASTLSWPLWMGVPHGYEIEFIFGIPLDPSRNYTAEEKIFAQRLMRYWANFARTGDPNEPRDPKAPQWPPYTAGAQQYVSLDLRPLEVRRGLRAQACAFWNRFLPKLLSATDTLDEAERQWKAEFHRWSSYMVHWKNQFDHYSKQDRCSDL
recombinant HuAChE mutant Phe338Ala, sequence (P22303 32-614 F369A limits assumed): as the sequence (P22303 32-614 Y368A limits assumed) above, with A337Y, F338A counted along it
recombinant HuAChE mutant Glu202Gln, sequence (P22303 32-614 E233Q limits assumed): as the sequence (P22303 32-614 Y368A limits assumed) above, with E202Q, A337Y counted along it
T1 sequence (P22303 32-614): as the sequence (P22303 32-614 Y368A limits assumed) above, with A337Y counted along it
recombinant HuAChE mutant Glu450Ala, sequence (P22303 32-614 E481A limits assumed): as the sequence (P22303 32-614 Y368A limits assumed) above, with A337Y, E450A counted along it

Molecule `CC(=O)SCC[N+](C)(C)C.[I-]` [ATC, Acetylthiocholine iodide] has a Km [1] of 130 ± 15 µM.

With `CCOP(=O)(OCC)Oc1ccc([N+](=O)[O-])cc1` [paraoxon] the “ki (paraoxon) relative to the wild type” value [2] was 1.9±0.7 (0.02), the “ki (paraoxon) relative to the wild type” value [3] was 14.4±1.4 (0.15) and the “ki, rate constant of phosphylation (paraoxon)” value (“ki, rate constant” below) ([3]; acetylcholinesterase) was 14.4±1.4 (0.15) x 10^-4.M^-1.min^-1. The “ki (paraoxon) relative to the wild type” value [4] was 7.1±0.6 (0.07), the “ki, rate constant” value ([4]; acetylcholinesterase) was 7.1±0.6 (0.07) x 10^-4.M^-1.min^-1 and the “ki (paraoxon) relative to the wild type” value [5] was 97 ±16 (1.00). The “ki (paraoxon) relative to the wild type” value [6] was 2.8±0.48(0.03) and the “ki, rate constant” value ([6]; acetylcholinesterase) was 2.8±0.48(0.03) x 10^-4.M^-1.min^-1.

Molecule “recombinant HuAChE mutant Tyr133Ala (Homo sapiens; Y164A)” has a Km (CC(=O)SCC[N+](C)(C)C) of 5750 µM.

Work on “recombinant human acetylcholinesterase (HuAChE), wild type (Homo sapiens)” yielded a Km (CC(=O)SCCC(C)(C)C) of 280 ± 80 µM.
